In the supplement of paper PMC10307832:

Key:
CX-5461 + Trametinib = compound: Cc1cnc(CNC(=O)c2c(=O)c3ccc(N4CCCN(C)CC4)nc3n3c2sc2ccccc23)cn1 [CX-5461] + CC(=O)Nc1cccc(-n2c(=O)n(C3CC3)c(=O)c3c(Nc4ccc(I)cc4F)n(C)c(=O)c(C)c32)c1 [Trametinib] (partner 0.02 µM); test: relative viability (nuclei count vs DMSO), 5 days (fraction); higher = more cells survive
How it was run: (§1)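 Lung cancer cell lines in 1536-well plates were dosed by pin tool the day after seeding, either with one drug alone or with a fixed anchor-drug dose plus five library-drug doses (not always all listed) in √10 steps. After 5 days, cells were fixed and their nuclei stained in one step (final 0.05% Triton X-100, 1% formaldehyde, 1 ug/ml Hoechst), then counted on 4× images. Relative viability is the nuclei count in treated wells divided by that in vehicle wells. Values are medians of duplicate plates.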

IMD-0354 + Dasatinib = compound: O=C(Nc1cc(C(F)(F)F)cc(C(F)(F)F)c1)c1cc(Cl)ccc1O [IMD-0354] + Cc1nc(Nc2ncc(C(=O)Nc3c(C)cccc3Cl)s2)cc(N2CCN(CCO)CC2)n1 [Dasatinib] (partner 0.075 µM); test: as above
How it was run: as §1

Cell Line: HOP-62
- relative viability (CX-5461 + Trametinib; first compound 0.01 µM): 0.404
- relative viability (CX-5461 + Trametinib; first compound 0.03162 µM): 0.37
- relative viability (CX-5461 + Trametinib; first compound 0.1 µM): 0.388
- relative viability (CX-5461 + Trametinib; first compound 0.3162 µM): 0.419
- relative viability (CX-5461 + Trametinib; first compound 1 µM): 0.363
- relative viability (IMD-0354 + Dasatinib; first compound 0.04 µM): 0.629
- relative viability (IMD-0354 + Dasatinib; first compound 0.1265 µM): 0.637
- relative viability (IMD-0354 + Dasatinib; first compound 0.4 µM): 0.441
- relative viability (IMD-0354 + Dasatinib; first compound 1.265 µM): 0.213
- relative viability (IMD-0354 + Dasatinib; first compound 4 µM): 0.164

Cell Line: CAL-12T
- relative viability (CX-5461 + Trametinib; first compound 0.01 µM): 0.367
- relative viability (CX-5461 + Trametinib; first compound 0.03162 µM): 0.297
- relative viability (CX-5461 + Trametinib; first compound 0.1 µM): 0.302
- relative viability (CX-5461 + Trametinib; first compound 0.3162 µM): 0.344
- relative viability (CX-5461 + Trametinib; first compound 1 µM): 0.181
- relative viability (IMD-0354 + Dasatinib; first compound 0.04 µM): 0.356
- relative viability (IMD-0354 + Dasatinib; first compound 0.1265 µM): 0.387
- relative viability (IMD-0354 + Dasatinib; first compound 0.4 µM): 0.255
- relative viability (IMD-0354 + Dasatinib; first compound 1.265 µM): 0.0944
- relative viability (IMD-0354 + Dasatinib; first compound 4 µM): 0.146

Cell Line: NCI-H520
- relative viability (CX-5461 + Trametinib; first compound 0.01 µM): 0.754
- relative viability (CX-5461 + Trametinib; first compound 0.03162 µM): 0.642
- relative viability (CX-5461 + Trametinib; first compound 0.1 µM): 0.734
- relative viability (CX-5461 + Trametinib; first compound 0.3162 µM): 0.327
- relative viability (CX-5461 + Trametinib; first compound 1 µM): 0.352
- relative viability (IMD-0354 + Dasatinib; first compound 0.04 µM): 0.21
- relative viability (IMD-0354 + Dasatinib; first compound 0.1265 µM): 0.185
- relative viability (IMD-0354 + Dasatinib; first compound 0.4 µM): 0.186
- relative viability (IMD-0354 + Dasatinib; first compound 1.265 µM): 0.132
- relative viability (IMD-0354 + Dasatinib; first compound 4 µM): 0.163

Cell Line: NCI-H1755
- relative viability (CX-5461 + Trametinib; first compound 0.01 µM): 0.826
- relative viability (CX-5461 + Trametinib; first compound 0.03162 µM): 0.796
- relative viability (CX-5461 + Trametinib; first compound 0.1 µM): 0.836
- relative viability (CX-5461 + Trametinib; first compound 0.3162 µM): 0.719
- relative viability (CX-5461 + Trametinib; first compound 1 µM): 0.753
- relative viability (IMD-0354 + Dasatinib; first compound 0.04 µM): 0.438
- relative viability (IMD-0354 + Dasatinib; first compound 0.1265 µM): 0.461
- relative viability (IMD-0354 + Dasatinib; first compound 0.4 µM): 0.395
- relative viability (IMD-0354 + Dasatinib; first compound 1.265 µM): 0.243
- relative viability (IMD-0354 + Dasatinib; first compound 4 µM): 0.34

Cell Line: NCI-H2023
- relative viability (CX-5461 + Trametinib; first compound 0.01 µM): 0.54
- relative viability (CX-5461 + Trametinib; first compound 0.03162 µM): 0.564
- relative viability (CX-5461 + Trametinib; first compound 0.3162 µM): 0.491
- relative viability (CX-5461 + Trametinib; first compound 1 µM): 0.115
- relative viability (IMD-0354 + Dasatinib; first compound 0.04 µM): 0.713
- relative viability (IMD-0354 + Dasatinib; first compound 0.1265 µM): 0.497
- relative viability (IMD-0354 + Dasatinib; first compound 0.4 µM): 0.361
- relative viability (IMD-0354 + Dasatinib; first compound 1.265 µM): 0.108
- relative viability (IMD-0354 + Dasatinib; first compound 4 µM): 0.113

Cell Line: NCI-H2009
- relative viability (CX-5461 + Trametinib; first compound 0.01 µM): 0.341
- relative viability (CX-5461 + Trametinib; first compound 0.03162 µM): 0.271
- relative viability (CX-5461 + Trametinib; first compound 0.1 µM): 0.286
- relative viability (CX-5461 + Trametinib; first compound 0.3162 µM): 0.301
- relative viability (CX-5461 + Trametinib; first compound 1 µM): 0.243
- relative viability (IMD-0354 + Dasatinib; first compound 0.04 µM): 0.367
- relative viability (IMD-0354 + Dasatinib; first compound 0.1265 µM): 0.292
- relative viability (IMD-0354 + Dasatinib; first compound 0.4 µM): 0.263
- relative viability (IMD-0354 + Dasatinib; first compound 1.265 µM): 0.109
- relative viability (IMD-0354 + Dasatinib; first compound 4 µM): 0.0808
